Experiments:
Trypanosoma cruzi [1] = assay: In vitro antitrypanosomal activity against Trypanosoma cruzi epimastigote, CL strain; type: functional, organism-based
Trypanosoma cruzi [2] = assay: Percent inhibition of growth against Trypanosoma cruzi epimastigotes, Y strain at concentration 4 ug/ml (13-17 uM); type: functional; conditions: read-out: GI
Trypanosoma cruzi [3] = assay: In vitro for antitrypanosomal activity against Trypanosoma cruzi epimastigote, Ystrain; type: functional, organism-based
Trypanosoma cruzi [4] = assay: In vitro for antitrypanosomal activity against Trypanosoma cruzi epimastigote, SC-28 strain; type: functional, organism-based

IC50 (Trypanosoma cruzi [1]) [nM] | IC50 (Trypanosoma cruzi [3]) [nM] | IC50 (Trypanosoma cruzi [4]) [nM] | Compound | inhibition of growth at 4 µg/mL (Trypanosoma cruzi [2]) [%]
2650 | 2820 | 3050 | COc1ccc2c(c1)C(=O)c1cc(C(C)O)oc1C2=O (configuration not stated) | 100
2550 | 3020 | 2800 | O=C1C(=O)c2ccoc2-c2ccccc21 | 100
1860 | 1920 | 2170 | COc1ccc2c(OC(C)=O)c3cc(C(C)=O)oc3cc2c1 | 100
 |  |  | COc1ccc(C(=O)O)c(Cc2ccco2)c1 | 0
530 | 490 | 570 | COc1ccc2c(c1)C(=O)c1oc(C(C)=O)cc1C2=O | 100
 |  |  | COc1ccc2c(c1)C(c1ccco1)OC2=O (configuration not stated) | 18
 |  |  | COc1ccc2c(c1)C(c1ccc(C(C)=O)o1)OC2=O (configuration not stated) | 17
 |  |  | COc1ccc2c(c1OC)C(=O)c1ccoc1C2=O | 45
 |  |  | COc1ccc2c(c1OC)C(=O)c1oc(C(C)=O)cc1C2=O | 45
 |  |  | COc1ccc2c(c1OC)C(=O)c1oc(C(C)O)cc1C2=O (configuration not stated) | 22
 |  |  | COc1ccc2c(c1OC)C(=O)c1occc1C2=O | 25
 |  |  | COc1cccc2c1C(c1ccco1)OC2=O (configuration not stated) | 19

Compound | IC50 (Trypanosoma cruzi [1]) [nM] | IC50 (Trypanosoma cruzi [3]) [nM] | IC50 (Trypanosoma cruzi [4]) [nM] | inhibition of growth at 4 µg/mL (Trypanosoma cruzi [2]) [%]
CC1CS(=O)(=O)CCN1/N=C/c1ccc([N+](=O)[O-])o1 (configuration not stated) [NIFURTIMOX] | 3810 | 3290 | 3550 | 100
O=C(Cn1ccnc1[N+](=O)[O-])NCc1ccccc1 [BENZNIDAZOLE] | 8950 | 8050 | 8970 | 100
